IC50 data for 21 compounds are collected here from patent US12441727B2, “Tricyclic compounds as inhibitors of KRAS” (Incyte Corporation, priority 2021, dated 2025).

One assay concerns the target KRAS G12C (Homo sapiens, UniProt P01116, G12C). The assay is described as follows: GDP-GTP exchange assay (KRAS_G12C exchange assay). The class given is biochemical. The settings on record: bodipy-loaded KRAS G12C 2.5 nM, SOS1 150 nM, 2 hours pre-incubation with inhibitor; read-out: G12C_exchange. The method, then:
The inhibitor potency of the exemplified compounds was determined in a fluorescence based guanine nucleotide exchange assay, which measures the exchange of bodipy-GDP (fluorescently labeled GDP) for GppNHp (Non-hydrolyzable GTP analog) to generate the active state of KRAS in the presence of SOS1 (guanine nucleotide exchange factor). Inhibitors were serially diluted in DMSO and a volume of 0.1 μL was transferred to the wells of a black low volume 384-well plate. 5 μL/well volume of bodipy-loaded KRAS G12C diluted to 5 nM in assay buffer (25 mM Hepes pH 7.5, 50 mM NaCl, 10 mM MgCl2 and 0.01% Brij-35) was added to the plate and pre-incubated with inhibitor for 2 hours at ambient temperature. Appropriate controls (enzyme with no inhibitor or with a G12C inhibitor (AMG-510)) were included on the plate. The exchange was initiated by the addition of a 5 μL/well volume containing 1 mM GppNHp and 300 nM SOS1 in assay buffer. The 10 μL/well reaction concentration of the bodipy-loaded KRAS G12C, GppNHp, and SOS1 were 2.5 nM, 500 uM, and 150 nM, respectively. The reaction plates were incubated at ambient temperature for 2 hours, a time estimated for complete GDP-GTP exchange in the absence of inhibitor. For the KRAS G12D and G12V mutants, similar guanine nucleotide exchange assays were used with 2.5 nM as final concentration for the bodipy loaded KRAS proteins and with 4 hours and 3 hours incubation after adding GppNHp-SOS1 mixture for G12D and G12V respectively. A cyclic peptide described to selectively bind G12D mutant (Sakamoto et al., BBRC 484.3 (2017), 605-611) or internal compounds with confirmed binding were used as positive controls in the assay plates. Fluorescence intensities were measured on a PheraStar plate reader instrument (BMG Labtech) with excitation at 485 nm and emission at 520 nm.
Either GraphPad prism or Genedata Screener SmartFit was used to analyze the data. The IC50 values were derived by fitting the data to a four parameter logistic equation producing a sigmoidal dose-response curve with a variable Hill coefficient.

The next assay deals with KRAS_G12C pERK. The assay is described as follows: Cellular pERK HTRF assay (KRAS_G12C pERK assay). Format: cell-based, human. Particulars: KRAS G12C cells, 4 hours incubation with compound, read-out: G12C_pERK. The method, then:
MIA PaCa-2 (KRAS G12C; ATCC® CRL-1420), NCI-H358 (KRAS G12C; ATCC® CRL-5807), A427 (KRAS G12D; ATCC® HTB53), HPAFII (KRAS G12D; ATCC® CRL-1997), YAPC (KRAS G12V; DSMZ ACC382), SW480 (KRAS G12V; ATCC® CRL-228) and NCI-H838 (KRAS WT; ATCC® CRL-5844) cells are purchased from ATCC and maintained in RPMI 1640 media supplemented with 10% FBS (Gibco/Life Technologies). The cells are plated at 5000 cells per well (8 uL) into Greiner 384-well low volume, flat-bottom, and tissue culture treated white plates and incubated overnight at […], 5% CO2. The next morning, test compound stock solutions are diluted in media at 3× the final concentration and 4 uL are added to the cells, with a final concentration of 0.1% of DMSO. The cells are incubated with the test compounds for 4 hours (G12C and G12V) or 2 hrs (G12D) at 37° C., 5% CO2. Four uL of 4× lysis buffer with blocking reagent (Cisbio) are added to each well and plates are rotated gently (300 rpm) for 30 minutes at room temperature. Four uL per well of Cisbio anti Phospho-ERK 1/2 d2 is mixed with anti Phospho-ERK 1/2 Cryptate (1:1), and added to each well, incubated overnight in the dark at room temperature. Plates are read on the Pherastar plate reader at 665 nm and 620 nm wavelengths. Data are analyzed in Genedata Screener using SmartFit for IC50 values.
For orientation: TR-FRET usually uses a lanthanide donor and a delayed reading to cut background.

Like-named read-outs stand apart in the source and are kept apart here.

KRAS G12C, sequence (P01116 1-188 isoform P01116-2 G12C): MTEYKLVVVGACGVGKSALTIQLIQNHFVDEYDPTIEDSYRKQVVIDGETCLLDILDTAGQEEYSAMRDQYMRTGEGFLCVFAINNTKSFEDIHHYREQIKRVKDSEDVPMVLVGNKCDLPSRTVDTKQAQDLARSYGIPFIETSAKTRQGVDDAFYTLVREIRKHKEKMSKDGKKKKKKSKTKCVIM

Regarding `CN(C)C1(C)CN(c2nc3c(F)c(-c4ccc(F)c5cccnc45)c(C(F)(F)F)cc3c3c2nnn3[C@H]2CCN(C(=O)/C=C/CF)[C@H](CC#N)C2)C1` (single isomer, unassigned) [Example 1b], the IC50 at KRAS G12C was not above 50 nM; in the assay with KRAS_G12C pERK it was 50 to 100 nM.
`COc1c(C)cccc1-c1c(C(F)(F)F)cc2c(nc(N3CC(C)(N(C)C)C3)c3nnn([C@H]4CCN(C(=O)/C=C/CF)[C@H](CC#N)C4)c32)c1F` (single isomer, unassigned) [Example 2b]: the IC50 at KRAS G12C is not above 50 nM; in the assay with KRAS_G12C pERK, 50 to 100 nM.
The like results for `COc1c(Cl)cccc1-c1c(C(F)(F)F)cc2c(nc(N3CC(C)(N(C)C)C3)c3nnn([C@H]4CCN(C(=O)/C=C/CF)[C@H](CC#N)C4)c32)c1F` (single isomer, unassigned) [Example 3b] were, in that order, not above 50 nM and not above 50 nM.
The like results for `C[C@H](Oc1nc2c(F)c(-c3ccc(F)c4cccnc34)c(C(F)(F)F)cc2c2c1nnn2[C@H]1CCN(C(=O)/C=C/CF)[C@H](CC#N)C1)[C@@H]1CCCN1C` (single isomer, unassigned) [Example 4b] were, in that order, not above 50 nM and not above 50 nM.
As for `C=CC(=O)N1CCC(n2nnc3c(O[C@@H](C)[C@@H]4CCCN4C)nc4c(F)c(-c5ccc(F)c6cccnc56)c(C(F)(F)F)cc4c32)CC1` (single isomer, unassigned) [Example 5b], the IC50 is not above 50 nM at KRAS G12C and 50 to 100 nM in the assay on KRAS_G12C pERK.
On to `C=CC(=O)N1CCC(n2nnc3c(O[C@@H](C)[C@@H]4CCCN4C)nc4c(F)c(-c5cccc6cccc(C#N)c56)c(C)cc4c32)CC1` (single isomer, unassigned) [Example 11a], for which the IC50 at KRAS G12C was not above 50 nM; in the assay on KRAS_G12C pERK (Homo sapiens, 4 h), 100 to 1000 nM.
Regarding `C=CC(=O)N1CC[C@H](n2nnc3c(O[C@@H](C)[C@@H]4CCCN4C)nc4c(F)c(-c5cccc6cccc(C#N)c56)c(C)cc4c32)C[C@H]1C` (single isomer, unassigned) [Example 14a], on KRAS G12C, the IC50 was 50 to 100 nM.
Still for that read-out and setting: in the case of `C=C(F)C(=O)N1CC[C@H](n2nnc3c(N4CC(N(C)CC)C4)nc4c(F)c(-c5c(C)c(C)cc6[nH]ncc56)c(C)cc4c32)C[C@H]1CC#N` (single isomer, unassigned) [Example 15b] it was 100 to 1000 nM.
In the case of `Cc1cc2c(nc(O[C@@H](C)[C@@H]3CCCN3C)c3nnn(C4CCN(C(=O)/C=C/CF)CC4)c32)c(F)c1-c1cccc2cccc(C#N)c12` (single isomer, unassigned) [Example 16a], the IC50 on KRAS G12C was not above 50 nM; with KRAS_G12C pERK (Homo sapiens, 4 h) it was 100 to 1000 nM.
On to `C=C(F)C(=O)N1CC[C@H](n2nnc3c(N4CC(C)(N(C)C)C4)nc4c(F)c(-c5cccc6cccc(C#N)c56)c(C)cc4c32)C[C@H]1CC#N` (single isomer, unassigned) [Example 17b], for which the IC50 on KRAS G12C fell in the range of 100 to 1000 nM.
`COC/C=C/C(=O)N1CC[C@H](n2nnc3c(N4CC(C)(N(C)C)C4)nc4c(Cl)c(-c5ccc(F)c6cccnc56)c(Cl)cc4c32)C[C@H]1CC#N` (single isomer, unassigned) [Example 18b]: the IC50 at KRAS G12C is not above 50 nM; with KRAS_G12C pERK, 100 to 1000 nM.
The like results for `CN(C)C1(C)CN(c2nc3c(Cl)c(-c4ccc(F)c5cccnc45)c(Cl)cc3c3c2nnn3[C@H]2CCN(C(=O)/C=C/CF)[C@H](CC#N)C2)C1` (single isomer, unassigned) [Example 19b] were, in that order, not above 50 nM and not above 50 nM.
Consider `C=C(F)C(=O)N1CC[C@H](n2nnc3c(O[C@@H](C)[C@@H]4CCCN4C)nc4c(F)c(-c5c(C)ncc6ccccc56)c(C)cc4c32)C[C@H]1CC#N` (single isomer, unassigned) [Example 23a], for which the IC50 at KRAS G12C lay in the range of 50 to 100 nM.
`COC/C=C/C(=O)N1CC[C@H](n2nnc3c(O[C@@H](C)[C@@H]4CCCN4C)nc4c(F)c(-c5c(C)ncc6ccccc56)c(C)cc4c32)C[C@H]1CC#N` (single isomer, unassigned) [Example 24a]: the IC50 on KRAS G12C was not above 50 nM; with KRAS_G12C pERK (Homo sapiens, 4 h) it was 50 to 100 nM.
On to `C=C(F)C(=O)N1CC[C@H](n2nnc3c(O[C@@H](C)[C@@H]4CCCN4C)nc4c(F)c(-c5c(F)ccc6ccc(C)nc56)c(C)cc4c32)C[C@H]1CC#N` (single isomer, unassigned) [Example 25b], for which the IC50 at KRAS G12C and in the assay on KRAS_G12C pERK was not above 50 nM throughout.
As to `C=CC(=O)N1CC[C@H](n2nnc3c(O[C@@H](C)[C@@H]4CCCN4C)nc4c(F)c(-c5cccc6c5c(CC#N)nn6C)c(C)cc4c32)C[C@H]1C` (single isomer, unassigned) [Example 28a], the IC50 on KRAS G12C is 100 to 1000 nM.
Still for that read-out and setting: the result for `C=CC(=O)N1CC[C@H](n2nnc3c(O[C@@H](C)[C@@H]4CCCN4C)nc4c(F)c(-c5cccc6c5c(CC#N)cn6C)c(C)cc4c32)C[C@H]1C` (single isomer, unassigned) [Example 31a] reads 100 to 1000 nM; that for `C=CC(=O)N1CCC(n2nnc3c(O[C@@H](C)[C@@H]4CCCN4C)nc4c(F)c(-c5cccc6c5c(CC#N)cn6C)c(C)cc4c32)CC1` (single isomer, unassigned) [Example 32a], 50 to 100 nM; that for `C=C(F)C(=O)N1CC[C@H](n2nnc3c(N4CC(C)(N(C)CC)C4)nc4c(F)c(-c5c(C)c(C)cc6[nH]ncc56)c(Cl)cc4c32)C[C@H]1CC#N` (single isomer, unassigned) [Example 33b], 100 to 1000 nM.
`COC/C=C/C(=O)N1CC[C@H](n2nnc3c(O[C@@H](C)[C@@H]4CCCN4C)nc4c(F)c(-c5c(F)cccc5OC)c(C)cc4c32)C[C@H]1CC#N` (single isomer, unassigned) [Example 34a]: the IC50 on KRAS G12C was not above 50 nM; in the assay with KRAS_G12C pERK (Homo sapiens, 4 h), not above 50 nM.
For `C=C(F)C(=O)N1CC[C@H](n2nnc3c(N4CC(C)(N(C)CC)C4)nc4c(F)c(-c5c(C)c(F)cc6[nH]ncc56)c(Cl)cc4c32)C[C@H]1CC#N` (single isomer, unassigned) [Example 35b], the IC50 on KRAS G12C lay in the range of 100 to 1000 nM.
